US8354387B2, “Methods and compositions for delivering siRNA into mammalian cells” (Centre National de la Recherche Scientifique, priority 2004, dated 2013)

Tests used:
human fibroblasts (Hs68) = assay: pRL-SV40 plasmid transfection of synchronized or arrested cells (luciferase activity); format: cell-based; details: for luciferase activity in serum-starved, arrested cells in comparison with dividing cells: 24 hrs after transfection; for transfection efficiency after 24 hrs, relative to expression after 48 hrs: synchronized Hs68, pRL-SV40, 24 hrs
Experimental: (§1) FIG. 2: The NLS of MPG is essential for nuclear translocation: A/ Purified GST-importin α and β were coupled onto GST Sepharose resin and incubated in batch with MPG/DNA or MPG^ΔNLS/DNA complexes for 1 hr, extensively washed and incubated with […] glutathione to elute the complexes. DNA was then extracted and analyzed by agarose gel electrophoresis (0.8%). […] B/ Delivery of pRL-SV40 plasmid: MPG/DNA (black boxes) or MPG^ΔNLS/DNA (grey boxes) complexes formed at a charge ratio of 5/1 with 100 ng pRL-SV40 plasmid encoding the reporter gene luciferase were overlaid onto synchronized or arrested (-FCS) human fibroblasts (Hs68). Luciferase activity was monitored 12 hrs and 24 hrs after release from synchrony, or after 24 hrs for arrested cells and 48 hrs for asynchronous cells. Control transfections were performed with Lipofectamine™ (white boxes) or naked plasmid (dashed boxes).
Hs68, Cos-7 and HeLa cell lines were cultured in Dulbecco's Modified Eagle's Medium supplemented with 2 mM glutamine, 1% antibiotics (streptomycin 10 000 μg/ml, penicillin, 10,000 IU/ml) and 10% (w/v) fetal calf serum (FCS) at 37° C. in a humidified atmosphere containing 5% CO2 as described previously (18). For MPG or MPG^ΔNLS-mediated gene delivery, peptide carrier/DNA complexes were formed in DMEM or PBS (500 μl of DMEM containing 100 ng of DNA complexed with MPG at a charge ratio 5:1) and incubated for 30 min at 37° C. Cells grown to 60% confluence were then overlaid with these preformed complexes. After 30 min incubation at 37° C., 1 ml of fresh DMEM supplemented with 10% fetal calf serum was added to the cells, without removing the overlay of carrier/DNA, and cells were returned to the incubator.
For cell cycle-dependent studies, Hs68 fibroblasts were synchronized by serum deprivation for 40 hrs, then restimulated to enter the cycle and grow into early G1 for 4 hrs by addition of fresh DMEM supplemented with 20% FCS, and incubated in the presence of MPG/DNA complexes as described above. Luciferase activity was monitored as described previously (19) and control transfection experiments were performed using Lipofectamine™. When transfected at 4° C., cells were incubated for 1 hour at 4° C. prior to transfection, then incubated with MPG/DNA complexes for another 2 hours at 4° C., extensively washed and finally returned to incubation at 37° C. in fresh medium supplemented with serum. When transfections were performed in the presence of bafilomycin A ([…]), cytochalasin B (50 μg/ml) or chloroquine (100 μM), cells were preincubated with these inhibitors of endocytosis for 1 hour prior to transfection.
In order to study the impact of the NLS of MPG on nuclear translocation of plasmids, transfection experiments were performed on synchronized or growth-arrested cells with either MPG or its NLS mutant. Cells were synchronized in G0 by serum starvation then released back into the cell cycle by addition of serum. 4 hours after release, cells were transfected with MPG/DNA or MPG^ΔNLS/DNA complexes and transgene expression was monitored 12 hours later, when most of the cells were in late G1, and […] later, in late G2 prior to mitosis. Data were normalized with luciferase activity obtained 48 hours after transfection, and compared with asynchronous cells. […] After 24 hrs, transfection efficiency reached 70%. In contrast, when transfection was performed with MPG^ΔNLS (SEQ ID NO:3), luciferase activity was negligible after 12 hrs (7%), and only reached 26% after 24 hrs. […]

importin α = assay: In vitro binding of carrier/DNA complexes to immobilized GST-importin α; details: 1 hr at 25° C., agarose gel
Experimental: as §1, with “Control transfections were performed with Lipofectamine™ (white boxes) or naked plasmid (dashed boxes).” left out
Plasmids for the expression of recombinant GST-fusion protein importin α and importin β were kindly provided by B. Cullen. […] DNA was then extracted from the complexes with phenol-chloroform, followed by ethanol precipitation, and finally analyzed by agarose gel electrophoresis (0.8%).
MPG peptide is derived from the nuclear localization sequence of the SV 40 large T antigen and from the fusion peptide domain of HIV-1 gp41 protein (17). […] Then, both bound and unbound fractions were analyzed by agarose gel electrophoresis.

Sequence	luciferase activity in serum-starved, arrested cells in comparison with dividing cells (human fibroblasts (Hs68))	luciferase expression after 12 hrs, relative to expression after 48 hrs (human fibroblasts (Hs68); synchronized Hs68, pRL-SV40, 12 hrs) [%]	transfection efficiency after 24 hrs, relative to expression after 48 hrs (human fibroblasts (Hs68)) [%]	interaction of carrier/DNA complex with importin α (importin α)
GALFLGFLGAAGSTMGAWSQPKSKRKV (carrier peptide) [MPG^ΔNLS, MPG variant with single mutation of the second lysine residue in the NLS motif to serine]	no transfection was observed	7	26	dramatically reduced
GALFLGFLGAAGSTMGAWSQPKKKRKV (carrier peptide) [MPG, bipartite amphipathic peptide derived from fusion peptide domain of HIV-1 gp41 and NLS of SV40 large T antigen]	50%	–	70	significantly interacted specifically with importin α
